Assay results reported in patent US20250228865A1, “COMPOUNDS FOR ENHANCING READ THROUGH OF GENES CONTAINING PREMATURE TERMINATION CODONS AND METHODS FOR MAKING AND USING THE SAME” (Sanofi US Services Inc., priority 2022, published 2025).

Columns and labels:
[1] = test system: recombinant human CFTR carrying the premature stop codon (PTC) mutation R1162X; test: CFTR-PTC mutant translation readthrough, Nanoluc tagged CFTR luminescence (R1162X cell line); format: cell-based; conditions: for CFTR R1162X ACTIVITY Fold 10 μM G-418: fold over 10 μM G-418, in combination with G418; for EC50: in combination with G418, 16HBE cells, read-out: CFTR R1162X ACTIVITY EC50
Outline: (§1)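 16HBE cells stably expressing Nanoluc-tagged human CFTR with G542X or R1162X, in medium with 3 μM VX-809, treated 48 h at 37 °C with compound (10-point, 2-fold, top 50 μM final) alone or with 10 μM G418. Live-cell Nanoluc luminescence normalised to a maximally effective G418 (125-250 μM).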

[2] = test system: recombinant human CFTR carrying the premature stop codon (PTC) mutation G542X; test: CFTR-PTC mutant translation readthrough, Nanoluc tagged CFTR luminescence (G542X cell line); format: cell-based; conditions: in combination with G418, G542X cell line; for CFTR G542X ACTIVITY Fold 10 μM G-418: fold over 10 μM G-418; for EC50: 16HBE cells
Outline: as §1

| EC50 [1] [µM] | EC50 [2] [µM] | Compound | CFTR R1162X ACTIVITY Fold 10 μM G-418 [1] | CFTR G542X ACTIVITY Fold 10 μM G-418 [2] |
| --- | --- | --- | --- | --- |
| 1 to 10 | 1 to 10 | CNCC1CN(c2ncc(OCc3c(Cl)cccc3Cl)cn2)CCO1 (stereo not shown) | B′ (B′ = ≥5X to <10X) | B′ (B′ = ≥5X to <10X) |
| 1 to 10 | 1 to 10 | Cc1cccc(C(C)(F)F)c1COc1ccc(N2CC(CO)NC2=O)nc1 (stereo not shown) | A′ (A′ = ≥10X) | A′ (A′ = ≥10X) |
| < 1 | < 1 | CC1(O)CCN(c2ncc(OCc3c(Cl)cccc3C(F)(F)F)cn2)CC1 | A′ (A′ = ≥10X) | A′ (A′ = ≥10X) |
| < 1 | < 1 | CN1C(=O)CN(c2ccc(OCc3c(Cl)cccc3C(F)(F)F)cn2)C1=O | A′ (A′ = ≥10X) | A′ (A′ = ≥10X) |
| < 1 | < 1 | Cc1cccc(C(F)(F)F)c1COc1cnc(N2CCC(O)(c3cccnc3)CC2)nc1 | A′ (A′ = ≥10X) | A′ (A′ = ≥10X) |
| 1 to 10 | < 1 | Cc1cccc(C(F)(F)F)c1COc1cnc(N2CCC(O)(c3ccccn3)CC2)nc1 | A′ (A′ = ≥10X) | A′ (A′ = ≥10X) |
| 1 to 10 | < 1 | Cc1cccc(C(F)(F)F)c1COc1cnc(N2CCC(N)CC2)nc1 | A′ (A′ = ≥10X) | A′ (A′ = ≥10X) |
| 1 to 10 | 1 to 10 | Cc1cccc(C(F)(F)F)c1COc1cnc(N2CC(=O)NC2=O)nc1 | A′ (A′ = ≥10X) | A′ (A′ = ≥10X) |
| 1 to 10 | 1 to 10 | CCCCN1CC(=O)N(c2ccc(OCc3c(C)cccc3C(F)(F)F)cc2)C1=O | B′ (B′ = ≥5X to <10X) | B′ (B′ = ≥5X to <10X) |
| > 10 | > 10 | COc1cccc(Br)c1COc1ccc(N2CC(CO)OC2=O)cc1 (stereo not shown) | B′ (B′ = ≥5X to <10X) | A′ (A′ = ≥10X) |
| 1 to 10 | < 1 | Cc1cccc(C(F)(F)F)c1COc1ccc(N2C(=O)NC3(CCCC3)C2=O)cc1 | B′ (B′ = ≥5X to <10X) | A′ (A′ = ≥10X) |
| 1 to 10 | 1 to 10 | CN1CC(=O)N(c2ccc(OCc3c(Cl)cccc3C(F)(F)F)cn2)C1=O | C′ (C′ = <5X) | A′ (A′ = ≥10X) |
| 1 to 10 | 1 to 10 | CC1(C)NC(=O)N(c2ccc(OCc3c(Cl)cccc3C(F)(F)F)cn2)C1=O | B′ (B′ = ≥5X to <10X) | A′ (A′ = ≥10X) |
| > 10 | 1 to 10 | O=C1OC(CO)CN1c1cnc(OCc2c(Cl)cccc2Cl)cn1 (stereo not shown) | B′ (B′ = ≥5X to <10X) | B′ (B′ = ≥5X to <10X) |
| 1 to 10 | 1 to 10 | COc1ccc(CN2C(=O)CN(c3ccc(OCc4c(C)cccc4C(F)(F)F)cc3)C2=O)cc1 | B′ (B′ = ≥5X to <10X) | B′ (B′ = ≥5X to <10X) |
| 1 to 10 | 1 to 10 | Cc1cccc(C(F)(F)F)c1COc1cnc(N2CC(=O)N(CO)C2=O)nc1 | A′ (A′ = ≥10X) | A′ (A′ = ≥10X) |
| 1 to 10 | 1 to 10 | Cc1cccc(C(F)(F)F)c1COc1cnc(N2CC(=O)N(C)C2=O)nc1 | A′ (A′ = ≥10X) | A′ (A′ = ≥10X) |
| < 1 | < 1 | Cc1cccc(C(F)(F)F)c1COc1ccc(N2CC(=O)N(C)C2=O)nc1 | A′ (A′ = ≥10X) | A′ (A′ = ≥10X) |
| < 1 | < 1 | Cc1cccc(C(F)(F)F)c1COc1cnc(N2CCC(O)C(C)(C)C2)nc1 (stereo not shown) | A′ (A′ = ≥10X) | A′ (A′ = ≥10X) |
| < 1 | < 1 | Cc1cccc(C(C)(F)F)c1COc1cnc(N2CCN(C(N)=O)CC2)nc1 | A′ (A′ = ≥10X) | A′ (A′ = ≥10X) |
| < 1 | < 1 | FC(F)(F)c1cccc(Cl)c1COc1cnc(-n2cc(-c3ccccn3)nn2)nc1 | A′ (A′ = ≥10X) | A′ (A′ = ≥10X) |

| EC50 [1] [µM] | EC50 [2] [µM] | Compound | CFTR R1162X ACTIVITY Fold 10 μM G-418 [1] | CFTR G542X ACTIVITY Fold 10 μM G-418 [2] |
| --- | --- | --- | --- | --- |
| 1 to 10 | 1 to 10 | FC1(F)CCN(c2ncc(OCc3c(Cl)cccc3C(F)(F)F)cn2)C1 | A′ (A′ = ≥10X) | A′ (A′ = ≥10X) |
| < 1 | < 1 | FC(F)(F)c1cccc(Cl)c1COc1cnc(-n2ncc(-c3ccccn3)n2)nc1 | A′ (A′ = ≥10X) | A′ (A′ = ≥10X) |
| < 1 | < 1 | Cc1cccc(C(F)(F)F)c1COc1cnc(-n2ncc(-c3ccccn3)n2)nc1 | A′ (A′ = ≥10X) | A′ (A′ = ≥10X) |
| < 1 | < 1 | Cc1cccc(C(F)(F)F)c1COc1cnc(-n2cc(-c3ccccn3)nn2)nc1 | B′ (B′ = ≥5X to <10X) | A′ (A′ = ≥10X) |
| 1 to 10 | 1 to 10 | CN(CC1CNCCO1)c1ncc(OCc2c(Cl)cccc2Cl)cn1 (stereo not shown) | C′ (C′ = <5X) | C′ (C′ = <5X) |
| 1 to 10 | < 1 | Cc1cccc(C(F)(F)F)c1COc1ccc(N2C(=O)NC(C(C)C)C2=O)cc1 (stereo not shown) | A′ (A′ = ≥10X) | A′ (A′ = ≥10X) |
| 1 to 10 | 1 to 10 | Cc1cccc(C(F)(F)F)c1COc1ccc(N2C(=O)NC(C)(C)C2=O)nc1 | B′ (B′ = ≥5X to <10X) | A′ (A′ = ≥10X) |
| 1 to 10 | < 1 | CC(=O)NC[C@@H]1CN(c2ncc(OCc3c(C)cccc3C(F)(F)F)cn2)CCO1 | A′ (A′ = ≥10X) | A′ (A′ = ≥10X) |
| 1 to 10 | < 1 | CC(=O)NC[C@H]1CN(c2ncc(OCc3c(C)cccc3C(F)(F)F)cn2)CCO1 | A′ (A′ = ≥10X) | A′ (A′ = ≥10X) |
| < 1 | < 1 | CNC(=O)N1CCN(c2ncc(OCc3c(C)cccc3C(F)(F)F)cn2)CC1 | A′ (A′ = ≥10X) | A′ (A′ = ≥10X) |
| < 1 | < 1 | Cc1cccc(C(F)(F)F)c1COc1ccc(-n2cc(CO)nn2)nc1 | A′ (A′ = ≥10X) | A′ (A′ = ≥10X) |
| < 1 | < 1 | Cc1cccc(C(F)(F)F)c1COc1ccc(-n2ncc(CO)n2)nc1 | A′ (A′ = ≥10X) | A′ (A′ = ≥10X) |
| < 1 | < 1 | Cc1cccc(C(F)(F)F)c1COc1cnc(N2CCN(C(N)=O)[C@@H](C)C2)nc1 | A′ (A′ = ≥10X) | A′ (A′ = ≥10X) |
| 1 to 10 | < 1 | Cc1cccc(C(F)(F)F)c1COc1cnc(-c2cc(CO)on2)nc1 | A′ (A′ = ≥10X) | A′ (A′ = ≥10X) |
| 1 to 10 | 1 to 10 | NC(=O)[C@@H]1CCN(c2ncc(OCc3c(Cl)cccc3C(F)(F)F)cn2)C1 | A′ (A′ = ≥10X) | A′ (A′ = ≥10X) |
| 1 to 10 | 1 to 10 | Cc1cccc(C(F)(F)F)c1COc1cnc(N2CC[C@@H](C(N)=O)C2)nc1 | A′ (A′ = ≥10X) | A′ (A′ = ≥10X) |
| 1 to 10 | 1 to 10 | Cc1cccc(C(F)(F)F)c1COc1cnc(N2CC[C@H](C(N)=O)C2)nc1 | A′ (A′ = ≥10X) | A′ (A′ = ≥10X) |
| < 1 | < 1 | OCc1nnc(-c2ccc(OCc3c(Cl)cccc3C(F)(F)F)cc2)o1 | A′ (A′ = ≥10X) | A′ (A′ = ≥10X) |
| 1 to 10 | < 1 | OCc1cc(-c2ncc(OCc3c(Cl)cccc3C(F)(F)F)cn2)[nH]n1 | A′ (A′ = ≥10X) | A′ (A′ = ≥10X) |
| < 1 | < 1 | Cc1cccc(C(F)(F)F)c1COc1cnc(N2CCO[C@H](CN)C2)nc1 | A′ (A′ = ≥10X) | A′ (A′ = ≥10X) |
| < 1 | < 1 | Cc1cccc(C(F)(F)F)c1COc1cnc(N2CCO[C@@H](CN)C2)nc1 | A′ (A′ = ≥10X) | A′ (A′ = ≥10X) |

| Compound | EC50 [1] [µM] | EC50 [2] [µM] | CFTR R1162X ACTIVITY Fold 10 μM G-418 [1] | CFTR G542X ACTIVITY Fold 10 μM G-418 [2] |
| --- | --- | --- | --- | --- |
| Cc1cccc(C(F)(F)F)c1COc1cnc(N2CC3CC(C2)C3O)nc1 (stereo not shown) | 1 to 10 | 1 to 10 | A′ (A′ = ≥10X) | A′ (A′ = ≥10X) |
